Assay results taken from ChEMBL document CHEMBL3228036, “A new chemical series active against African trypanosomes: benzyltriphenylphosphonium salts” (J Med Chem, 1979).
Calls of active or inactive are those of the source. No cut-off for these calls is given here.

system: Trypanosoma brucei rhodesiense; assay: […] activity against Trypanosoma brucei rhodesiense Wellcome CT infected in ICR/HA mouse assessed as curated mouse at 424 mg/kg, sc treated within 2 hrs of parasite infection measured up to 30 days; assay type: functional, organism-based; parameters: dose 424 mg/kg; settings: not given

Row | SMILES | Activity
1 | Cc1ccccc1[P+](Cc1ccccc1)(c1ccccc1)c1ccccc1.[Cl-] | inactive
2 | [Br-].c1ccc([P+](c2ccccc2)(c2ccccc2)c2ccccc2)cc1 [TETRAPHENYLPHOSPHONIUM BROMIDE] | inactive
3 | Cc1ccccc1[P+](Cc1ccccc1)(c1ccccc1C)c1ccccc1C.[Cl-] | inactive
4 | CCOc1ccc(C[P+](c2ccccc2)(c2ccccc2)c2ccccc2)cc1.[Cl-] | inactive
5 | [Br-].c1ccc(C[P+](c2ccccc2)(c2ccccc2)c2ccccc2)cc1 | inactive
6 | Cc1ccccc1[P+](Cc1ccccc1)(c1ccccc1)c1ccccc1C.[Cl-] | inactive

system: Trypanosoma brucei rhodesiense; assay: […] activity against Trypanosoma brucei rhodesiense Wellcome CT infected in ICR/HA mouse assessed as curated mouse at 424 mg/kg, po treated within 2 hrs of parasite infection measured up to 30 days; assay type: functional, organism-based; parameters: dose 424 mg/kg; settings: not given

Row | SMILES | Activity
7 | Cc1ccccc1[P+](Cc1ccccc1)(c1ccccc1)c1ccccc1.[Cl-] | inactive
8 | [Br-].c1ccc([P+](c2ccccc2)(c2ccccc2)c2ccccc2)cc1 [TETRAPHENYLPHOSPHONIUM BROMIDE] | inactive
9 | Cc1ccccc1[P+](Cc1ccccc1)(c1ccccc1C)c1ccccc1C.[Cl-] | inactive
10 | Cc1ccccc1[P+](Cc1ccccc1)(c1ccccc1)c1ccccc1C.[Cl-] | inactive

system: Mus musculus; assay: Toxicity in Trypanosoma brucei rhodesiense Wellcome CT infected ICR/HA mouse assessed as mortality at 424 mg/kg, po treated within 2 hrs of parasite infection measured up to 30 days; assay type: organism-based; parameters: dose 424 mg/kg, route oral; settings: in vivo

Row | SMILES | Activity
11 | Cc1ccccc1[P+](Cc1ccccc1)(c1ccccc1)c1ccccc1.[Cl-] | Toxic
12 | Cc1ccccc1[P+](Cc1ccccc1)(c1ccccc1C)c1ccccc1C.[Cl-] | Toxic

system: Trypanosoma brucei rhodesiense; assay: […] activity against Trypanosoma brucei rhodesiense Wellcome CT infected in ICR/HA mouse assessed as curated mouse at 212 mg/kg, sc treated within 2 hrs of parasite infection measured up to 30 days; assay type: functional, organism-based; parameters: dose 212 mg/kg; settings: not given

Row | SMILES | Activity
13 | [Br-].c1ccc([P+](c2ccccc2)(c2ccccc2)c2ccccc2)cc1 [TETRAPHENYLPHOSPHONIUM BROMIDE] | inactive
14 | CCOc1ccc(C[P+](c2ccccc2)(c2ccccc2)c2ccccc2)cc1.[Cl-] | inactive
15 | Cc1ccccc1[P+](Cc1ccccc1)(c1ccccc1)c1ccccc1C.[Cl-] | inactive

system: Trypanosoma brucei rhodesiense; assay: […] activity against Trypanosoma brucei rhodesiense Wellcome CT infected in ICR/HA mouse assessed as curated mouse at 212 mg/kg, po treated within 2 hrs of parasite infection measured up to 30 days; assay type: functional, organism-based; parameters: dose 212 mg/kg; settings: not given

Row | SMILES | Activity
16 | [Br-].c1ccc(C[P+](c2ccccc2)(c2ccccc2)c2ccccc2)cc1 | inactive
17 | Cc1ccccc1[P+](Cc1ccccc1)(c1ccccc1)c1ccccc1C.[Cl-] | inactive

system: Mus musculus; assay: Toxicity in Trypanosoma brucei rhodesiense Wellcome CT infected ICR/HA mouse assessed as mortality at 212 mg/kg, po treated within 2 hrs of parasite infection measured up to 30 days; assay type: organism-based; parameters: dose 212 mg/kg, route oral; settings: in vivo

Row | SMILES | Activity
18 | [Br-].c1ccc(C[P+](c2ccccc2)(c2ccccc2)c2ccccc2)cc1 | Toxic
19 | Cc1ccccc1[P+](Cc1ccccc1)(c1ccccc1)c1ccccc1C.[Cl-] | Toxic

system: Trypanosoma brucei rhodesiense; assay: […] activity against Trypanosoma brucei rhodesiense Wellcome CT infected in ICR/HA mouse assessed as curated mouse at 106 mg/kg, sc treated within 2 hrs of parasite infection measured up to 30 days; assay type: functional, organism-based; parameters: dose 106 mg/kg; settings: not given

Row | SMILES | Activity
20 | Cc1ccccc1[P+](Cc1ccccc1)(c1ccccc1)c1ccccc1.[Cl-] | inactive
21 | [Br-].c1ccc([P+](c2ccccc2)(c2ccccc2)c2ccccc2)cc1 [TETRAPHENYLPHOSPHONIUM BROMIDE] | inactive
22 | Cc1ccccc1[P+](Cc1ccccc1)(c1ccccc1C)c1ccccc1C.[Cl-] | inactive
23 | [Br-].c1ccc(C[P+](c2ccccc2)(c2ccccc2)c2ccccc2)cc1 | inactive

system: Trypanosoma brucei rhodesiense; assay: […] activity against Trypanosoma brucei rhodesiense Wellcome CT infected in ICR/HA mouse assessed as curated mouse at 106 mg/kg, po treated within 2 hrs of parasite infection measured up to 30 days; assay type: functional, organism-based; parameters: dose 106 mg/kg; settings: not given

Row | SMILES | Activity
24 | Cc1ccccc1[P+](Cc1ccccc1)(c1ccccc1C)c1ccccc1C.[Cl-] | inactive

system: Trypanosoma brucei rhodesiense; assay: […] activity against Trypanosoma brucei rhodesiense Wellcome CT infected in ICR/HA mouse assessed as curated mouse at 53 mg/kg, sc treated within 2 hrs of parasite infection measured up to 30 days; assay type: functional, organism-based; parameters: dose 53 mg/kg; settings: not given

Row | SMILES | Activity
25 | Cc1ccccc1[P+](Cc1ccccc1)(c1ccccc1)c1ccccc1.[Cl-] | inactive
26 | [Br-].c1ccc(C[P+](c2ccccc2)(c2ccccc2)c2ccccc2)cc1 | inactive

system: Trypanosoma brucei rhodesiense; assay: […] activity against Trypanosoma brucei rhodesiense Wellcome CT infected in ICR/HA mouse assessed as curated mouse at 53 mg/kg, po treated within 2 hrs of parasite infection measured up to 30 days; assay type: functional, organism-based; parameters: dose 53 mg/kg; settings: not given

Row | SMILES | Activity
27 | Cc1ccccc1[P+](Cc1ccccc1)(c1ccccc1)c1ccccc1.[Cl-] | inactive
28 | [Br-].c1ccc(C[P+](c2ccccc2)(c2ccccc2)c2ccccc2)cc1 | inactive
29 | Cc1ccccc1[P+](Cc1ccccc1)(c1ccccc1)c1ccccc1C.[Cl-] | inactive

system: Trypanosoma brucei rhodesiense; assay: […] activity against Trypanosoma brucei rhodesiense Wellcome CT infected in ICR/HA mouse assessed as curated mouse at 26.5 mg/kg, sc treated within 2 hrs of parasite infection measured up to 30 days; assay type: functional; settings: not given

Row | SMILES | Activity
30 | [Br-].c1ccc([P+](c2ccccc2)(c2ccccc2)c2ccccc2)cc1 [TETRAPHENYLPHOSPHONIUM BROMIDE] | inactive
31 | Cc1ccccc1[P+](Cc1ccccc1)(c1ccccc1C)c1ccccc1C.[Cl-] | inactive
32 | CCOc1ccc(C[P+](c2ccccc2)(c2ccccc2)c2ccccc2)cc1.[Cl-] | inactive
33 | [Br-].c1ccc(C[P+](c2ccccc2)(c2ccccc2)c2ccccc2)cc1 | inactive

system: Trypanosoma brucei rhodesiense; assay: […] activity against Trypanosoma brucei rhodesiense Wellcome CT infected in ICR/HA mouse assessed as curated mouse at 26.5 mg/kg, po treated within 2 hrs of parasite infection measured up to 30 days; assay type: functional, organism-based; parameters: dose 26.5 mg/kg; settings: not given

Row | SMILES | Activity
34 | Cc1ccccc1[P+](Cc1ccccc1)(c1ccccc1)c1ccccc1.[Cl-] | inactive
35 | Cc1ccccc1[P+](Cc1ccccc1)(c1ccccc1C)c1ccccc1C.[Cl-] | inactive
36 | [Br-].c1ccc(C[P+](c2ccccc2)(c2ccccc2)c2ccccc2)cc1 | inactive

system: Trypanosoma brucei rhodesiense; assay: […] activity against Trypanosoma brucei rhodesiense Wellcome CT infected in ICR/HA mouse assessed as curated mouse at 13.3 mg/kg, sc treated within 2 hrs of parasite infection measured up to 30 days; assay type: functional, organism-based; parameters: dose 13.3 mg/kg; settings: not given

Row | SMILES | Activity
37 | Cc1ccccc1[P+](Cc1ccccc1)(c1ccccc1)c1ccccc1.[Cl-] | inactive
38 | Cc1ccccc1[P+](Cc1ccccc1)(c1ccccc1C)c1ccccc1C.[Cl-] | inactive
39 | CCOc1ccc(C[P+](c2ccccc2)(c2ccccc2)c2ccccc2)cc1.[Cl-] | inactive
40 | [Br-].c1ccc(C[P+](c2ccccc2)(c2ccccc2)c2ccccc2)cc1 | inactive
41 | Cc1ccccc1[P+](Cc1ccccc1)(c1ccccc1)c1ccccc1C.[Cl-] | inactive

system: Trypanosoma brucei rhodesiense; assay: […] activity against Trypanosoma brucei rhodesiense Wellcome CT infected in ICR/HA mouse assessed as curated mouse at 13.3 mg/kg, po treated within 2 hrs of parasite infection measured up to 30 days; assay type: functional, organism-based; parameters: dose 13.3 mg/kg; settings: not given

Row | SMILES | Activity
42 | Cc1ccccc1[P+](Cc1ccccc1)(c1ccccc1)c1ccccc1.[Cl-] | inactive
43 | Cc1ccccc1[P+](Cc1ccccc1)(c1ccccc1C)c1ccccc1C.[Cl-] | inactive
44 | [Br-].c1ccc(C[P+](c2ccccc2)(c2ccccc2)c2ccccc2)cc1 | inactive
45 | Cc1ccccc1[P+](Cc1ccccc1)(c1ccccc1)c1ccccc1C.[Cl-] | inactive

system: Trypanosoma brucei rhodesiense; assay: […] activity against Trypanosoma brucei rhodesiense Wellcome CT infected in ICR/HA mouse assessed as curated mouse at 6.5 mg/kg, sc treated within 2 hrs of parasite infection measured up to 30 days; assay type: functional, organism-based; parameters: dose 6.5 mg/kg; settings: not given

Row | SMILES | Activity
46 | Cc1ccccc1[P+](Cc1ccccc1)(c1ccccc1)c1ccccc1.[Cl-] | inactive
47 | [Br-].c1ccc(C[P+](c2ccccc2)(c2ccccc2)c2ccccc2)cc1 | inactive

system: Mus musculus; assay: Toxicity in Trypanosoma brucei rhodesiense Wellcome CT infected ICR/HA mouse assessed as mortality at 424 mg/kg, sc treated within 2 hrs of parasite infection measured up to 30 days; assay type: organism-based; parameters: dose 424 mg/kg, route subcutaneous; settings: in vivo

Row | SMILES | Activity
48 | Cc1ccccc1[P+](Cc1ccccc1)(c1ccccc1)c1ccccc1.[Cl-] | Toxic
49 | [Br-].c1ccc([P+](c2ccccc2)(c2ccccc2)c2ccccc2)cc1 [TETRAPHENYLPHOSPHONIUM BROMIDE] | Toxic
50 | Cc1ccccc1[P+](Cc1ccccc1)(c1ccccc1C)c1ccccc1C.[Cl-] | Toxic
51 | CCOc1ccc(C[P+](c2ccccc2)(c2ccccc2)c2ccccc2)cc1.[Cl-] | Toxic
52 | [Br-].c1ccc(C[P+](c2ccccc2)(c2ccccc2)c2ccccc2)cc1 | Toxic
53 | Cc1ccccc1[P+](Cc1ccccc1)(c1ccccc1)c1ccccc1C.[Cl-] | Toxic

system: Mus musculus; assay: Toxicity in Trypanosoma brucei rhodesiense Wellcome CT infected ICR/HA mouse assessed as mortality at 212 mg/kg, sc treated within 2 hrs of parasite infection measured up to 30 days; assay type: organism-based; parameters: dose 212 mg/kg, route subcutaneous; settings: in vivo

Row | SMILES | Activity
54 | [Br-].c1ccc([P+](c2ccccc2)(c2ccccc2)c2ccccc2)cc1 [TETRAPHENYLPHOSPHONIUM BROMIDE] | Toxic
55 | CCOc1ccc(C[P+](c2ccccc2)(c2ccccc2)c2ccccc2)cc1.[Cl-] | Toxic
56 | Cc1ccccc1[P+](Cc1ccccc1)(c1ccccc1)c1ccccc1C.[Cl-] | Toxic
